Read-outs that look alike come from different tables or passages of the source.
Experiments:
[1] = Growth of graft sarcoma M-1 in rats; format: in vivo; settings: rat, in vivo, ip, rats with sarcoma M-1, repeated intraperitoneal administration; read-out: Maximum tolerable dose (MTD)
In short: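 Solid sarcomas were transplanted into white rats of 110-130 g, and treatment began 5-7 days after transplant. Compounds were dissolved in isotonic NaCl and given intraperitoneally, with doses in mg/kg body weight.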

carcinoma HK = assay: Growth of graft carcinoma HK in mice; format: in vivo, noninbred white mice; settings: mice, 6 injections
Excerpt: (§1) The antitumor activity has been studied on white rats weighing 110-130 g, as well as on white noninbred and inbred mice weighing 17-21 g with ligated tumors. The treatment is started 5-7 days transplanting of solid tumors and the following day after the transplanting of leukotic strains. Use has been made of the following transplantable strains of the tumors:
(§2) (2) noninbred white mice: sarcoma 180, sarcoma AK, sarcoma 37, carcinoma HK;
(§3) The compounds of the general formula (I), wherein X represents Cl^- (compound 1), Br^- (compound 2) are well-soluble in an isotonic solution of sodium chloride and they are administered intraperitoneally. The doses of the compounds have been calculated in mg per kg of the animal bodyweight.

[2] = Growth of graft carcinoma HK in mice; format: in vivo, noninbred white mice; settings: mouse, in vivo, ip; mice with carcinoma HK, repeated intraperitoneal administration; read-out: Maximum tolerable dose (MTD)
Excerpt: as §1, §2, §3

transplantable leukemia = assay: Activity relative to leukoses of inbred mice (overall); format: in vivo
Excerpt: (2) activity of the compounds relative to leukoses of inbred mice;
as §1
(3) inbred mice: leukemia La, leukemia L1210 and P-388.
The activity of compounds relative to leukosis has been assessed by the life span (It) of treated animals as compared to the control ones. It --index of suppression of leukosis development is calculated by the formula: [formula]

sarcoma 536 = assay: Growth of graft sarcoma 536 in rats; format: in vivo; settings: rats
Excerpt: as §1
(§4) (1) rats: Ienssen's sarcoma, sarcoma 45, sarcoma M-1, sarcoma 536;
as §3

[3] = Growth of graft sarcoma 536 in rats; format: in vivo; settings: rat, in vivo, ip, rats with sarcoma 536, repeated intraperitoneal administration; read-out: Maximum tolerable dose (MTD)
Excerpt: as §1, §4, §3

[4] = 250 mg/kg intraperitoneally (MTD)
[5] = 50 mg/kg intraperitoneally, 7 injections
[6] = 70 mg/kg intraperitoneally, 6 injections

## O=C(CCBr)N1CC[N+]2(CC1)CC[N+]1(CCN(C(=O)CCBr)CC1)CC2 [Compound 1, N,N^3 -di-(β-bromopropionyl)-N^1,N^2 -dispirotripiperazinium dichloride]
[1]
  MTD: 111 mg/kg
Carcinoma HK; 125 mg/kg intraperitoneally
  Change in the animal body weight, test: -3 g
  It, % tumor growth suppression index: +42%
Carcinoma HK; [4]
  Change in the animal body weight, test: -4 g
  It, % tumor growth suppression index: +86%
[2]
  MTD: 250 mg/kg
Transplantable leukemia
  effect on transplantable leukemia in mice: clearly pronounced antileukotic effect
Transplantable leukemia; listed as preparation according to the present invention
  effect on transplantable leukemia in mice: pronounced antileucotic effect
Sarcoma 536
  tumor growth suppression class, Sarcoma 536: ++ (tumor growth suppression by 80-95%)
Sarcoma 536; [5]
  Change in the animal body weight, test: -15 g
  It, % tumor growth suppression index: +45%
Sarcoma 536; [6]
  Change in the animal body weight, test: -22 g
  It, % tumor growth suppression index: +55%
Sarcoma 536; 140 mg/kg intraperitoneally (MTD), 6 injections
  Change in the animal body weight, test: -32 g
Sarcoma 536; 140 mg/kg intraperitoneally (MTD), 6 injections, listed as preparation of the invention, 140 mg/kg
  It, % tumor growth suppression index: 78%
[3]
  MTD: 140 mg/kg

— US4481201A, “Pharmaceutical composition containing N,N^3 -di-(β-bromopropionyl)-N^1,N^2 -dispirotripiperazinium dichloride” (Vsesojuzny Nauchno-Issledovatelsky Khimoko-Farmasevtichesky …, priority 1981, dated 1984)
